Test results: US20220024877A1 (Kansas State University Research Foundation, priority 2018, published 2022)
≈ marks a conversion by molar mass, not a printed value. Like-named read-outs stand apart in the source and are kept apart here.

Legend:
[1] = Copper(I) binding constant of NNSN compounds (1H-NMR titration with CuBr in D4-methanol); details: for Copper (I) binding constant: Table I
Description: They were recorded in D4-methanol by means of adding aliquots of a 5 mmol CuBr stock solution in D4-methanol to the 1 mmol NNSN-compound, resulting in 0, 0.5, 1.0, 2.0 and 3.0 mmol CuBr concentration in D4-methanol.

[2] = Therapeutic index (approx.)
[3] = tested on: Avirulent Mtb strain mc26206 (H37Rv ΔpanCD ΔleuCD, double auxotroph); experiment: microbe, parasite or virus in culture; assay type: cell-based; details: Mycobacterium tuberculosis
[4] = log P (octanol/water partition coefficient); assay type: physicochemical
[5] = tested on: S. aureus clinical isolate SA3; experiment: Zinc-activated activity, MIC with Zn2+ as trigger; details: Staphylococcus aureus
S. aureus strain 1471 = experiment: Drop assay against S. aureus strain 1471 with or without copper
Description: For the drop assay, bacteria were grown in wells with or without copper, using a 1:2 drug titration starting at 10 μM.

MRSA = experiment: In vitro activity against S. aureus (MRSA), MIC with or without Cu supplementation; details: Staphylococcus aureus, MRSA
Description: S. aureus was inoculated in Mueller-Hinton medium from frozen stocks and grown for 2-4 h (until reaching an OD600˜1) at 37° C. while shaking. Once the OD was reached, bacteria were harvested and diluted in Phenolred-free RPMI1640 medium to an OD of 0.01 (=inoculum). Test compounds where diluted from frozen DMSO-stocks were diluted in Phenolred-free RPMI1640 medium with or without Cu supplementation (100 μM) and serially diluted in 96-well plates in the same medium to achieve a final concentration of between 0.08 and 10 μM after addition of an equal volume of inoculum. Medium-only controls and growth controls in the absence of test compounds were also included. The plates were placed in sealed bags and incubated at 37° C. After 15-20 h incubation time, an OD600 reading was taken and analyzed. […] If kinetic data were required, resazurin was added to each well. Using a plate reader with incubation chamber, resazurin conversion was monitored by fluorescence reading every 20 min for up to 24 h. After normalizing the data to respective controls, the MIC was determined using the same definition as above.

[6] = read-out: MIC* against MRSA (μM), kinetic data (determined from bacteria growth experiments), resulting in IC50 values similar to MIC values

SMILES | Copper (I) binding constant [1] | Therapeutic index (approx.) [2] | IC50 ([3]; read-out: IC50 +Cu) | IC50 ([3]; read-out: IC50 −Cu) | MIC90 ([3]; read-out: MIC90 +Cu) | MIC90 ([3]; read-out: MIC90 −Cu) | logP [4] | MIC [5] | MIC (S. aureus strain 1471; Staphylococcus aureus, 1471, read-out: MIC: +50 μM Cu) | MIC (S. aureus strain 1471; Staphylococcus aureus, MRSA, read-out: MIC against MRSA (clinical isolate 1471)) | MIC (MRSA; read-out: MIC against the clinical isolate SA3, SA3 resistant to ampicillin, clindamycin, erythromycin, penicillin, and tetracycline) | MIC (MRSA; [6]) | Binding constant ([1]; Cu-NNSN 1:1 stoichiometry)
Nc1ccn(C(=S)Nc2ccc(Cl)cc2)n1 [APM03, 3-amino-N-(4-chlorophenyl)-1H-pyrazole-1-carbothioamide] | 53225 M⁻¹ | 2 | 300 nM | > 12500 nM | 0.5 µM (≈ 0.126 µg/mL) | > 25 µM | 2.1 | 2.5 µM (≈ 0.632 µg/mL) | 1.25 µM (≈ 0.316 µg/mL) | 0.6 µM (≈ 0.152 µg/mL) | 70 µM (≈ 17.7 µg/mL) | 0.07 µM (≈ 0.0177 µg/mL) | 
Cc1ccn(C(=S)Nc2ccc(Cl)cc2)n1 [SB17] |  |  |  |  |  |  |  | 5 µM (≈ 1.26 µg/mL) |  |  |  |  | 54020 M⁻¹
Nc1ccn(C(=S)Nc2ccc([N+](=O)[O-])cc2)n1 [SB27, 3-amino-N-(4-nitrophenyl)-1H-pyrazole-1-carbothioamide] | 10460 M⁻¹ | 1 |  |  |  |  |  |  |  |  |  | 0.3 µM (≈ 0.079 µg/mL) | 
